From US20260297060A1, “COMPOUNDS FOR THE DEGRADATION OF MUTANT BRAF” (C4 THERAPEUTICS, INC., priority 2023, published 2026)

Tested on: A375-NRAS^Q61K cells
Assay: CTGlo Cell Viability Assay, A375-NRAS^Q61K (A375.11) cells, 96 hours
Type: cell-based, human
Conditions: A375.11 (A375-NRAS^Q61K) cells; for Emax / CTGlo A375.11 96 hours Emax: lowest % viability achieved
Method in brief: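 A375 cells carrying BRAF V600E and NRAS Q61K were seeded at 250 cells/well with a 10-point half-log dose series (max 10 μM final). After 96 h at 37 °C, viability was read as ATP luminescence (CellTiter-Glo), background-subtracted and normalized to DMSO (100%). GI50 from 4-parameter fit; Emax is the lowest % viability.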

Row | SMILES | GI50 (Homo sapiens, 96 h) [nM] | GI50 [nM] | Emax (Homo sapiens, 96 h) [%] | CTGlo A375.11 96 hours Emax
1 | CC(C)S(=O)(=O)Nc1ccc(F)c(Oc2ccc3ncn([C@H]4COC5(CCN(C6CCC(c7cc8c(cc7F)c(N7CCC(=O)NC7=O)nn8C)CC6)CC5)C4)c(=O)c3c2)c1C#N (single isomer, unassigned) [Compound 87] | < 1000 |  | < 50 | 
2 | CCN(C)S(=O)(=O)Nc1ccc(F)c(Nc2ccc3ncn([C@@H]4COC5(CCN(C6CCC(c7ccc(NC8CCC(=O)NC8=O)cc7F)CC6)CC5)C4)c(=O)c3c2F)c1C#N (single isomer, unassigned) [Compound 90] | < 1000 |  | 50 to 90 | 
3 | CC(C)S(=O)(=O)Nc1ccc(F)c(Oc2ccc3ncn([C@H]4COC5(CCN(C6CCC(c7ccc(NC8CCC(=O)NC8=O)cc7F)CC6)CC5)C4)c(=O)c3c2)c1C#N (single isomer, unassigned) [Compound 92] | < 1000 |  | < 50 | 
4 | CO[C@@H]1CCN(S(=O)(=O)Nc2ccc(F)c(Oc3ccc4ncn([C@H]5COC6(CCN(C7CCC(c8cc9c(cc8F)c(N8CCC(=O)NC8=O)nn9C)CC7)CC6)C5)c(=O)c4c3)c2C#N)C1 (single isomer, unassigned) [Compound 100] | < 1000 |  | < 50 | 
5 | CO[C@@H]1CCN(S(=O)(=O)Nc2ccc(F)c(Oc3ccc4ncn([C@H]5COC6(CCN(C7CCC(c8ccc(NC9CCC(=O)NC9=O)cc8F)CC7)CC6)C5)c(=O)c4c3)c2C#N)C1 (single isomer, unassigned) [Compound 109] | < 1000 |  | < 50 | 
6 | CCN(C)S(=O)(=O)Nc1ccc(F)c(Oc2ccc3ncc(OC4CCN(C5CCC(c6ccc(NC7CCC(=O)NC7=O)cc6F)CC5)CC4)nc3c2)c1C#N (single isomer, unassigned) [Compound 110, 7-[2-cyano-3-[[ethyl(methyl)sulfamoyl]amino]-6-fluoro-phenoxy]-2-[[1-[4-[4-[(2,6-dioxo-3-piperidyl)amino]-2-fluoro-phenyl]cyclohexyl]-4-piperidyl]oxy]quinoxaline] | > 10000 |  | 50 to 90 | 
7 | Cn1nc(N2CCC(=O)NC2=O)c2cc(F)c(C3CCC(N4CCC5(CC4)C[C@@H](n4cnc6ccc(Oc7c(F)ccc(NS(=O)(=O)C8CCCC8)c7C#N)cc6c4=O)CO5)CC3)cc21 (single isomer, unassigned) [Compound 113] | < 1000 |  | < 50 | 
8 | CO[C@H]1CCN(S(=O)(=O)Nc2ccc(F)c(Oc3ccc4ncn([C@H]5COC6(CCN(C7CCC(c8cc9c(cc8F)c(N8CCC(=O)NC8=O)nn9C)CC7)CC6)C5)c(=O)c4c3)c2C#N)C1 (single isomer, unassigned) [Compound 115] | < 1000 |  | < 50 | 
9 | CCN(C)S(=O)(=O)Nc1ccc(F)c(Oc2ccc3ncc(OCC4CCN(C5CCC(c6cc7c(cc6F)c(N6CCC(=O)NC6=O)nn7C)CC5)CC4)nc3c2)c1C#N (single isomer, unassigned) [Compound 118, 7-[2-cyano-3-[[ethyl(methyl)sulfamoyl]amino]-6-fluoro-phenoxy]-2-[[1-[4-[3-(2,4-dioxohexahydropyrimidin-1-yl)-5-fluoro-1-methyl-indazol-6-yl]cyclohexyl]-4-piperidyl]methoxy]quinoxaline] | 1000 to 10000 |  | 50 to 90 | 
10 | Cn1nc(N2CCC(=O)NC2=O)c2cc(F)c(C3CCC(N4CCC5(CC4)C[C@@H](n4cnc6ccc(Oc7c(F)ccc(NS(=O)(=O)N8CC[C@@H](F)C8)c7C#N)cc6c4=O)CO5)CC3)cc21 (single isomer, unassigned) [Compound 121] | < 1000 |  | < 50 | 
11 | CCN(C)S(=O)(=O)Nc1ccc(F)c(Oc2ccc3ncn(CC4CCN(C5CCC(c6cc7c(cc6F)c(N6CCC(=O)NC6=O)nn7C)CC5)CC4)c(=O)c3c2)c1C#N (single isomer, unassigned) [Compound 126, 6-[2-cyano-3-[[ethyl(methyl)sulfamoyl]amino]-6-fluoro-phenoxy]-3-[[1-[4-[3-(2,4-dioxohexahydropyrimidin-1-yl)-5-fluoro-1-methyl-indazol-6-yl]cyclohexyl]-4-piperidyl]methyl]-4-oxo-quinazoline] | 1000 to 10000 |  | 50 to 90 | 
12 | CCN(C)S(=O)(=O)Nc1ccc(F)c(Oc2ccc3ncc([C@H]4COC5(CCN(C6CCC(c7cc8c(cc7F)c(N7CCC(=O)NC7=O)nn8C)CC6F)CC5)C4)nc3c2)c1C#N (single isomer, unassigned) [Compound 160] | < 1000 |  | 50 to 90 | 

The next lines start with results.

Row | GI50 (Homo sapiens, 96 h) [nM] | GI50 [nM] | SMILES | Emax (Homo sapiens, 96 h) [%] | CTGlo A375.11 96 hours Emax
13 | < 1000 |  | CCN(C)S(=O)(=O)Nc1ccc(F)c(Oc2ccc3ncn(C4CC5(CCN(C6CCC(c7cc8c(cc7F)c(N7CCC(=O)NC7=O)nn8C)CC6F)CC5)C4)c(=O)c3c2)c1C#N (single isomer, unassigned) [Compound 83, 6-[2-cyano-3-[[ethyl(methyl)sulfamoyl]amino]-6-fluoro-phenoxy]-3-[7-[4-[3-(2,4-dioxohexahydropyrimidin-1-yl)-5-fluoro-1-methyl-indazol-6-yl]-2-fluoro-cyclohexyl]-7-azaspiro[3.5]nonan-2-yl]-4-oxo-quinazoline] | < 50 | 
14 |  | < 1000 | CCN(C)S(=O)(=O)Nc1ccc(F)c(Oc2ccc3ncn(C4CC5(CCN(C6CCC(c7cc8c(cc7F)c(N7CCC(=O)NC7=O)nn8C)CC6F)CC5)C4)c(=O)c3c2)c1C#N (single isomer, unassigned) [Compound 85] |  | *** (<=50%)
15 |  | < 1000 | CCN(C)S(=O)(=O)Nc1ccc(F)c(Oc2ccc3ncn(C4CC5(CCN(C6CCC(c7cc8c(cc7F)c(N7CCC(=O)NC7=O)nn8C)CC6F)CC5)C4)c(=O)c3c2)c1C#N (single isomer, unassigned) [Compound 86] |  | *** (<=50%)
16 | < 1000 |  | Cn1nc(N2CCC(=O)NC2=O)c2cc(F)c(C3CCC(N4CCC5(CC4)CC(n4cnc6ccc(Oc7c(F)ccc(NS(=O)(=O)C8CCCC8)c7C#N)cc6c4=O)C5)CC3)cc21 (single isomer, unassigned) [Compound 93, N-[2-cyano-3-[3-[7-[4-[3-(2,4-dioxohexahydropyrimidin-1-yl)-5-fluoro-1-methyl-indazol-6-yl]cyclohexyl]-7-azaspiro[3.5]nonan-2-yl]-4-oxo-quinazolin-6-yl]oxy-4-fluoro-phenyl]cyclopentanesulfonamide] | < 50 | 
17 | < 1000 |  | CC(C)S(=O)(=O)Nc1ccc(F)c(Oc2ccc3ncn(C4CC5(CCN(C6CCC(c7cc8c(cc7F)c(N7CCC(=O)NC7=O)nn8C)CC6)CC5)C4)c(=O)c3c2)c1C#N (single isomer, unassigned) [Compound 95, N-[2-cyano-3-[3-[7-[4-[3-(2,4-dioxohexahydropyrimidin-1-yl)-5-fluoro-1-methyl-indazol-6-yl]cyclohexyl]-7-azaspiro[3.5]nonan-2-yl]-4-oxo-quinazolin-6-yl]oxy-4-fluoro-phenyl]propane-2-sulfonamide] | 50 to 90 | 
18 | < 1000 |  | CO[C@@H]1CCN(S(=O)(=O)Nc2ccc(F)c(Oc3ccc4ncn(C5CC6(CCN(C7CCC(c8cc9c(cc8F)c(N8CCC(=O)NC8=O)nn9C)CC7)CC6)C5)c(=O)c4c3)c2C#N)C1 (single isomer, unassigned) [Compound 101] | < 50 | 
19 |  | > 10000 | CO[C@H]1CCN(S(=O)(=O)Nc2ccc(F)c(Oc3ccc4ncn(C5CC6(CCN(C7CCC(c8cc9c(cc8F)c(N8CCC(=O)NC8=O)nn9C)CC7)CC6)C5)c(=O)c4c3)c2C#N)C1 (single isomer, unassigned) [Compound 103] | 50 to 90 | 
20 | < 1000 |  | Cn1nc(N2CCC(=O)NC2=O)c2cc(F)c(C3CCC(N4CCC5(CC4)CC(n4cnc6ccc(Oc7c(F)ccc(NS(=O)(=O)N8CC[C@@H](F)C8)c7C#N)cc6c4=O)C5)CC3)cc21 (single isomer, unassigned) [Compound 122] | < 50 | 
21 |  | 1000 to 10000 | CN(CCO)S(=O)(=O)Nc1ccc(F)c(Oc2ccc3ncn(C4CC5(CCN(C6CCC(c7cc8c(cc7F)c(N7CCC(=O)NC7=O)nn8C)CC6F)CC5)C4)c(=O)c3c2)c1C#N (single isomer, unassigned) [Compound 145, 6-[2-cyano-6-fluoro-3-[[2-hydroxyethyl(methyl)sulfamoyl]amino]phenoxy]-3-[7-[4-[3-(2,4-dioxohexahydropyrimidin-1-yl)-5-fluoro-1-methyl-indazol-6-yl]-2-fluoro-cyclohexyl]-7-azaspiro[3.5]nonan-2-yl]-4-oxo-quinazoline] | 50 to 90 | 
22 | 1000 to 10000 |  | CCN(C)S(=O)(=O)Nc1ccc(F)c(Oc2ccc3ncn(C4CC5(CCN(C6CCC(c7cc8c(cc7F)c(N7CCC(=O)NC7=O)nn8C)CC6)CC5)C4)c(=O)c3c2)c1F (single isomer, unassigned) [Compound 178, 3-[7-[4-[3-(2,4-dioxohexahydropyrimidin-1-yl)-5-fluoro-1-methyl-indazol-6-yl]cyclohexyl]-7-azaspiro[3.5]nonan-2-yl]-6-[3-[[ethyl(methyl)sulfamoyl]amino]-2,6-difluoro-phenoxy]-4-oxo-quinazoline] | 50 to 90 | 
23 | < 1000 |  | CCN(C)S(=O)(=O)Nc1ccc(F)c(Oc2ccc3ncc(C4CC5(CCN(C6CCC(c7cc8c(cc7F)c(N7CCC(=O)NC7=O)nn8C)CC6)CC5)C4)nc3c2)c1C#N (single isomer, unassigned) [Compound 180, 7-[2-cyano-3-[[ethyl(methyl)sulfamoyl]amino]-6-fluoro-phenoxy]-2-[7-[4-[3-(2,4-dioxohexahydropyrimidin-1-yl)-5-fluoro-1-methyl-indazol-6-yl]cyclohexyl]-7-azaspiro[3.5]nonan-2-yl]quinoxaline] | < 50 | 
24 | 1000 to 10000 |  | CCN(C)S(=O)(=O)Nc1ccc(F)c(C(=O)c2ccc3ncn(C4CC5(CCN(C6CCC(c7cc8c(cc7F)c(N7CCC(=O)NC7=O)nn8C)CC6)CC5)C4)c(=O)c3c2)c1F (single isomer, unassigned) [Compound 182, 3-[7-[4-[3-(2,4-dioxohexahydropyrimidin-1-yl)-5-fluoro-1-methyl-indazol-6-yl]cyclohexyl]-7-azaspiro[3.5]nonan-2-yl]-6-[3-[[ethyl(methyl)sulfamoyl]amino]-2,6-difluoro-benzoyl]-4-oxo-quinazoline] | 50 to 90 | 
